According to US20050255595A1, “Genetically modified non-human mammal cells, procedure for their production and use in toxicity tests” (priority 2002, published 2005):
Where two headings read alike, the source gives them in different places.

Columns and labels:
[1] = system: primary hepatocytes (PHGH); test: cellular survival of PHGH, Trypan Blue exclusion; assay type: cell-based, mice; set-up: % cellular survival, PHGH 1 + 24 h / % cellular survival, PHGH 5 + 24 / % vitality of the cells, PHGH 1 + 24 h / % vitality of the cells, PHGH 5 + 24 h: unit of the concentration uncertain; settings: for % cellular survival, PHGH 1 + 24 h / % vitality of the cells, PHGH 1 + 24 h: 1 h treatment + 24 h normal medium; for % cellular survival, PHGH 5 + 24 / % vitality of the cells, PHGH 5 + 24 h: 5 h treatment + 24 h normal medium
Text: (§1) This different behaviour is explained by the greater sensitivity to the toxicant of the PHGH with respect to the MMH/GH5 as shown by analysis of the cellular vitality performed with the Trypan Blue method (FIG. 1, graph B). […] Therefore the greater resistance of the cells MMH/GH/5 to the toxicants constitutes another evident advantage as it permits the exclusion of false negatives in which the non-release of hGH, due to cellular death, is interpreted as non-toxicity of the compound. When the supernatant is collected after 5 hours of treatment followed by 24 hours of culture with normal medium (FIG. 1 graph C) the PHGHs respond, at the lowest concentrations of the two toxicants, with high levels of secretion of hGH and, at the highest concentrations, with low levels of secretion of hGH (lower cellular survival, graph D).
(§2) In table 3 the cellular survival percentage was determined with the Trypan Blue exclusion method. […]
(§3) For treatment, the two types of cells were treated with different concentrations of the compounds for 1 or 5 hours and then with normal medium for a further 24 hours. The effects of the treatment were assessed as described previously for the inorganic toxicants.

MMH/GH5 cells = test: cellular survival of MMH/GH5, Trypan Blue exclusion; assay type: cell-based, mice; set-up: % cellular survival, MMHGH/5 1 + 24 h / % cellular survival, MMHGH/5 5 + 24 / % vitality of the cells, MMH/GH 1 + 24 h / % vitality of the cells, MMH/GH 5 + 24 h: unit of the concentration uncertain; settings: for % cellular survival, MMHGH/5 1 + 24 h / % vitality of the cells, MMH/GH 1 + 24 h: 1 h treatment + 24 h normal medium; for % cellular survival, MMHGH/5 5 + 24 / % vitality of the cells, MMH/GH 5 + 24 h: 5 h treatment + 24 h normal medium
Text: as §1, §2, §3

[2] = system: single transgenic HPS70/hGH primary hepatocytes (PHGH); test: toxicity test, hGH secretion by primary transgenic hepatocytes (PHGH); assay type: cell-based, mice; set-up: hGH secreted, PHGH 1 h / hGH secreted, PHGH 5 h / hGH secreted, PHGH 1 + 24 h / hGH secreted, PHGH 5 + 24: unit of the concentration uncertain
Text: On the basis of the results illustrated, for the further analyses, clone no. […] The response to the toxic stress of the clone MMH/GH5 was then compared with the one obtained in single transgenic HPS70/hGH primary hepatocytes (PHGH). A representative sample of the cell line derived from said clone MMH/GH5 was deposited in accordance with and for the purposes of the Treaty of Budapest on the international recognition of deposit of micro-organisms for the purposes of the patents procedure with the AID “Centro di Biotecnologie Avanzate (CBA), Interlab Cell Line Collection (ICLC)” Servizio Biotecnologie, Largo R. Benzi, 10, 16132 Genova, Italy, on Jul. 30, 2002, where it was given identification number PD 02007.
as §2, §3

MMH/GH5 cells (Clone 5) = system: MMH/GH5 cells (Clone 5); set-up: hGH secreted, MMHGH/5 1 + 24 h / hGH secreted, MMHGH/5 5 + 24 / hGH secreted, MMHGH/5 1 h / hGH secreted, MMHGH/5 5 h: dose or concentration left out as unconfirmed
[3] = 0.5 (unit uncertain), Trypan Blue
[4] = 1 (unit uncertain), Trypan Blue
[5] = 25 (unit uncertain), Trypan Blue
[6] = 50 (unit uncertain), Trypan Blue (Table 3)
[7] = 5 (unit uncertain), Trypan Blue
[8] = 50 (unit uncertain), Trypan Blue (Table 4)

C=CC(O)CCCCC (centres unmarked) [1-Oct, 1-octene-3-ol]
% cellular survival, PHGH 1 + 24 h [1, 3]: 90% | % cellular survival, PHGH 5 + 24 [1, 3]: 60% | % cellular survival, PHGH 1 + 24 h [1, 4]: 50% | % cellular survival, PHGH 5 + 24 [1, 4]: 20% | cellular survival ([1]; PHGH, words, Table 3): reduced cellular survival | % cellular survival, MMHGH/5 1 + 24 h (MMH/GH5 cells; [3]): 90% | % cellular survival, MMHGH/5 5 + 24 (MMH/GH5 cells; [3]): 50% | % cellular survival, MMHGH/5 1 + 24 h (MMH/GH5 cells; [4]): 70% | % cellular survival, MMHGH/5 5 + 24 (MMH/GH5 cells; [4]): 20% | effect of the treatment (hGH secretion) ([2]; PHGH versus MMH/GH, at the end of the treatment): can be measured only in PHGH

CCCCC[C@H](O)/C=C/[C@H]1C=CC(=O)[C@@H]1CCCCCCC(=O)O [PGA1]
% cellular survival, PHGH 1 + 24 h [1, 5]: 95% | % cellular survival, PHGH 5 + 24 [1, 5]: 90% | % cellular survival, PHGH 1 + 24 h [1, 6]: 90% | % cellular survival, PHGH 5 + 24 [1, 6]: 70% | % cellular survival, MMHGH/5 1 + 24 h (MMH/GH5 cells; [5]): 90% | % cellular survival, MMHGH/5 5 + 24 (MMH/GH5 cells; [5]): 90% | % cellular survival, MMHGH/5 1 + 24 h (MMH/GH5 cells; [6]): 90% | % cellular survival, MMHGH/5 5 + 24 (MMH/GH5 cells; [6]): 90% | hGH secreted, MMHGH/5 1 h (MMH/GH5 cells (Clone 5); 25, 1 h treatment): 10 pg hGH/10^6 cells | hGH secreted, MMHGH/5 1 + 24 h (MMH/GH5 cells (Clone 5); 25, 1 h treatment + 24 h normal medium): 0 pg hGH/10^6 cells | hGH secreted, MMHGH/5 5 h (MMH/GH5 cells (Clone 5); 25, 5 h treatment): 27 pg hGH/10^6 cells | hGH secreted, MMHGH/5 5 + 24 (MMH/GH5 cells (Clone 5); 25, 5 h treatment + 24 h normal medium): 2 pg hGH/10^6 cells | hGH secreted, MMHGH/5 1 h (MMH/GH5 cells (Clone 5); 50, 1 h treatment (Table 3)): 94 pg hGH/10^6 cells | hGH secreted, MMHGH/5 1 + 24 h (MMH/GH5 cells (Clone 5); 50, 1 h treatment + 24 h normal medium (Table 3)): 116 pg hGH/10^6 cells | hGH secreted, MMHGH/5 5 h (MMH/GH5 cells (Clone 5); 50, 5 h treatment (Table 3)): 47 pg hGH/10^6 cells | hGH secreted, MMHGH/5 5 + 24 (MMH/GH5 cells (Clone 5); 50, 5 h treatment + 24 h normal medium (Table 3)): 9 pg hGH/10^6 cells | hGH secreted, PHGH 1 h ([2]; 25 (unit uncertain), 1 h treatment): 9 pg hGH/10^6 cells | hGH secreted, PHGH 1 + 24 h ([2]; 25 (unit uncertain), 1 h treatment + 24 h normal medium): 13 pg hGH/10^6 cells | hGH secreted, PHGH 5 h ([2]; 25 (unit uncertain), 5 h treatment): 16 pg hGH/10^6 cells | hGH secreted, PHGH 5 + 24 ([2]; 25 (unit uncertain), 5 h treatment + 24 h normal medium): 69 pg hGH/10^6 cells | hGH secreted, PHGH 1 h ([2]; 50 (unit uncertain), 1 h treatment (Table 3)): 7 pg hGH/10^6 cells | hGH secreted, PHGH 1 + 24 h ([2]; 50 (unit uncertain), 1 h treatment + 24 h normal medium (Table 3)): 4 pg hGH/10^6 cells | hGH secreted, PHGH 5 h ([2]; 50 (unit uncertain), 5 h treatment (Table 3)): 17 pg hGH/10^6 cells | hGH secreted, PHGH 5 + 24 ([2]; 50 (unit uncertain), 5 h treatment + 24 h normal medium (Table 3)): 522 pg hGH/10^6 cells

O=[As][O-].[Na+] [NaAsO2]
hGH secreted, 5 + 24 h (MMH/GH cells, Clone 4): 0 | hGH secreted, 5 h (MMH/GH cells, Clone 4): 0 | hGH secreted, 5 + 24 h (MMH/GH cells, Clone 11): 0

O=C1C=CCC1 [2-Cycl, 2-cyclopentene-1-one]
% cellular survival, PHGH 1 + 24 h [1, 3]: 90% | % cellular survival, PHGH 5 + 24 [1, 3]: 90% | % cellular survival, PHGH 1 + 24 h [1, 4]: 80% | % cellular survival, PHGH 5 + 24 [1, 4]: 60% | % cellular survival, MMHGH/5 1 + 24 h (MMH/GH5 cells; [3]): 90% | % cellular survival, MMHGH/5 5 + 24 (MMH/GH5 cells; [3]): 90% | % cellular survival, MMHGH/5 1 + 24 h (MMH/GH5 cells; [4]): 90% | % cellular survival, MMHGH/5 5 + 24 (MMH/GH5 cells; [4]): 90% | response (hGH secretion) in MMH/GH5 (MMH/GH5 cells (Clone 5); words, Table 3): rapid response

O=[N+]([O-])c1ccc(Cl)c([N+](=O)[O-])c1 [CDNB, 1-Chloro-2,4-DiNitro-Benzene]
% vitality of the cells, PHGH 1 + 24 h [1, 7]: 80% | % vitality of the cells, PHGH 5 + 24 h [1, 7]: 40% | % vitality of the cells, PHGH 1 + 24 h [1, 8]: 5% | % vitality of the cells, PHGH 5 + 24 h [1, 8]: 5% | % vitality of the cells, MMH/GH 1 + 24 h (MMH/GH5 cells; [7]): 80% | % vitality of the cells, MMH/GH 5 + 24 h (MMH/GH5 cells; [7]): 60% | % vitality of the cells, MMH/GH 1 + 24 h (MMH/GH5 cells; [8]): 70% | % vitality of the cells, MMH/GH 5 + 24 h (MMH/GH5 cells; [8]): 20% | toxicity on MMH/GH5 cells compared with PHGHs (MMH/GH5 cells; words, data in table 4): less toxic | secretion of the hGH from the MMH/GH5 cells (MMH/GH5 cells (Clone 5); all the conditions tested): considerable secretion
